Results reported in patent US6544787B1, “Non-myeloablative/lymphoablative conditioning regimen to induce patient anti-donor unresponsiveness in stem cell transplantation” (Hadash Medical Research Services and Development Ltd., priority 1996, dated 2003).
Where “and” joins values, the source holds several entries; their conditions need not be identical. Equal values may be shown once.

What was measured:
[1] = test system: patient with ovarian cancer stage IIIc; assay: CA-125 during prior chemotherapy, case history; format: in vivo, human; parameters: unit not given here
[2] = test system: human patients with malignant and non-malignant pathogenic cell diseases; format: in vivo; details: the other 8 patients who developed GVHD; starting with 2 mg/kg
[3] = test system: cultured erythroid colonies; assay: β-globin gene mutation assay on cultured erythroid colonies +/- Epo; format: cell-based, human; details: in the presence of Epo; 7% without Epo
Protocol: To clarify the unusual clinical picture of this patient, a β-globin gene mutation assay was performed on cultured erythroid colonies, +/− erythropoietin (Epo). […] Donor cells without Epo amounted to 7%, similar to their percentage in peripheral blood lymphocytes and nucleated BMC, rising to 16% in the presence of Epo.

Work on `CC(=O)O[C@H]1C(=O)[C@@]2(C)[C@H]([C@H](OC(=O)c3ccccc3)[C@]3(O)C[C@H](OC(=O)[C@H](O)[C@@H](NC(=O)c4ccccc4)c4ccccc4)C(C)=C1C3(C)C)[C@]1(OC(C)=O)CO[C@@H]1C[C@@H]2O` [Taxol] yielded a CA-125 ([1]; 175 mg/m^2, after 3 cycles, from 600) of 27, a CA-125 ([1]; after 10 cycles) of roughly 22 and a CA-125 ([1]; total of 28 courses) of 152.

With `N.N.[Cl][Pt][Cl]` [cisplatinum] the CA-125 ([1]; several courses 20 mg/d x3d q3w) was 328 and 439.6.

`C[C@]12C=CC(=O)C=C1CC[C@@H]1[C@@H]2C(=O)C[C@@]2(C)[C@H]1CC[C@]2(O)C(=O)CO` [prednisone] was tested, and the “response of GVHD to treatment” value [2] was “responded”.

erythropoietin [Epo] was tested, and the Donor cells [3] was 16%.
